Measurements from patent publication US20260070929A1, “METHODS AND COMPOSITIONS FOR MODULATING KRAS(G12D)” (Ranok Therapeutics (Hangzhou) Co. LTD., priority 2022, published 2026).
Like-named read-outs stand apart in the source and are kept apart here.

Columns and labels:
[1] = system: SW1990 pancreatic adenocarcinoma cells [homozygous G12D]; experiment: Cancer cell line proliferation (CellTiter-Glo), SW1990; type: cell-based; conditions: Homo sapiens, 72 hr treatment, read-out: SW1990 CTG (EC50)
Method: The following cancer cell lines were employed: AGS gastric carcinoma [heterozygous G12D](ATCC, CRL-1739); A-427 lung carcinoma [heterozygous G12D](ATCC, HTB-53); ASPC1 pancreatic adenocarcinoma [homozygous G12D](ATCC, CRL-1682) and SW1990 pancreatic adenocarcinoma [homozygous G12D](ATCC CRL-2172). Cell lines were cultured essentially according to ATCC recommendations.
AGS, A-427, ASPC1, SW1990, and GP2D cells were plated in 96-well tissue culture plates at 4,000 cells/well and incubated at 37° C./5% CO2 for 72 hr in 100 μl of media. 3-fold serial dilutions of each test compound were prepared ranging from 20 μM to 1.02 nM. Each cell line was then treated with test compounds at various concentrations with a final concentration of 0.5% DMSO/well, and then incubated at 37° C./5% CO2 for 72 hr. 100 µl of CellTiter-Glo® Reagent (Promega Corporation, Madison, WI) was added to each well and processed according manufacturer's protocol. Results were analyzed and EC50 values were calculated in GraphPad 7 software.

[2] = system: AGS gastric carcinoma cells [heterozygous G12D]; experiment: Cancer cell line proliferation (CellTiter-Glo), AGS; type: cell-based; conditions: 72 hr treatment, read-out: AGS CTG (EC50)
Procedure, shortened: (§1)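 EC50 values come from CellTiter-Glo viability measured after 72 hr compound treatment at 37° C./5% CO2 with 0.5% final DMSO. Plating was at 4,000 cells/well with 72 hr growth before dosing, and compounds were serially diluted 3-fold from 20 μM down to 1.02 nM.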

[3] = system: ASPC1 pancreatic adenocarcinoma cells [homozygous G12D]; experiment: Cancer cell line proliferation (CellTiter-Glo), ASPC1; type: cell-based; conditions: 72 hr treatment, read-out: ASPC-1 CTG (EC50)
Procedure, shortened: as §1

KRAS(G12D)/SOS1 = molecular target: T1, KRAS(G12D)/SOS1 (Homo sapiens, UniProt P01116, G12D); experiment: KRAS(G12D)/SOS1 homogeneous time-resolved fluorescence (HTRF) assay; type: binding; conditions: absence of GTP; 4° C., 3 hr
T1 construct: purchased Cisbio 63ADK000CB17PEH
Procedure, shortened: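 Disruption of the KRAS(G12D)/SOS1 pairing, in the absence of GTP, was read by time-resolved FRET after a 3 hr sealed incubation at 4 °C. Test compounds spanned 20 µM down to 1.02 nM in 3-fold steps. IC50 values correspond to half-maximal inhibition.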

[4] = system: A-427 lung carcinoma cells [heterozygous G12D]; experiment: Cancer cell line proliferation (CellTiter-Glo), A-427; type: cell-based; conditions: A-427 cells, 72 hr treatment, read-out: A427 CTG (EC50)
Procedure, shortened: as §1

T1 sequence (P01116 1-188 isoform P01116-2 G12D): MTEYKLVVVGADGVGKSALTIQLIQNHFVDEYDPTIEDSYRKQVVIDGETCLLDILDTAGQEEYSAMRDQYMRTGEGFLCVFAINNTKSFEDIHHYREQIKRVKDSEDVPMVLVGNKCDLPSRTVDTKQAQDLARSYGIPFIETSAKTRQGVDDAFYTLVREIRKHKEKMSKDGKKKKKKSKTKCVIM

Structure (SMILES)	EC50 [1]	EC50 ([2]; Homo sapiens)	EC50 ([3]; Homo sapiens, ASPC1, 72 h)	IC50 (KRAS(G12D)/SOS1)	EC50 ([4]; Homo sapiens)	EC50 [2]	EC50 [3]	EC50 [4]
CC(C)c1cc(C(=O)N2Cc3ccc(CN4CCC(CN5CCN(CC6(COc7nc(N8CC9CCC(C8)N9)c8cnc(-c9cc(O)cc%10ccccc9%10)c(F)c8n7)CC6)CC5)CC4)cc3C2)c(O)cc1O [Compound 159]	100 to 1000 nM	100 to 1000 nM	100 to 1000 nM	< 100 nM	100 to 1000 nM	–	–	–
C#Cc1cccc2cc(O)cc(-c3ncc4c(N5CC6CCC(C5)N6)nc(OCC5(CN6CCN(Cc7ccc8c(c7)CN(C(=O)c7cc(C(C)C)c(O)cc7O)C8)CC6)CC5)nc4c3F)c12 [Compound 131]	< 100 nM	< 100 nM	100 to 1000 nM	< 100 nM	100 to 1000 nM	–	–	–
C#Cc1cccc2cc(O)cc(-c3ncc4c(N5CC6CCC(C5)N6C(=O)C(F)(F)F)nc(OCC5(CN6CCN(CC7CCN(Cc8ccc(-n9c(C(=O)NCC(F)(F)F)nnc9-c9cc(C(C)C)c(O)cc9O)cc8)CC7)CC6)CC5)nc4c3F)c12 [Compound 143]	< 100 nM	< 100 nM	100 to 1000 nM	100 to 1000 nM	< 100 nM	–	–	–
C#Cc1c(F)ccc2cc(O)cc(-c3ncc4c(N5CC6CCC(C5)N6)nc(OCC5(CN6CCN(CC7CCN(c8ccc(-n9c(C(=O)NCC)nnc9-c9cc(C(C)C)c(O)cc9O)cc8)CC7)CC6)CC5)nc4c3F)c12 [Compound 145]	< 100 nM	< 100 nM	100 to 1000 nM	< 100 nM	< 100 nM	–	–	–
CCNC(=O)c1nnc(-c2cc(C(C)C)c(O)cc2O)n1-c1ccc(CN2CCN([C@H]3C[C@@H](COc4nc(N5CC6CCC(C5)N6)c5cnc(-c6cccc7cccc(OC)c67)c(F)c5n4)N(C)C3)CC2)cc1 [Compound 103]	100 to 1000 nM	< 100 nM	100 to 1000 nM	> 1000 nM	100 to 1000 nM	–	–	–
C#Cc1cccc2cc(O)cc(-c3ncc4c(N5CC6CNC(C6)C5)nc(OCC5(CN6CCN(CC7CCN(Cc8ccc9c(c8)CN(C(=O)c8cc(C(C)C)c(O)cc8O)C9)CC7)CC6)CC5)nc4c3F)c12 (stereo not drawn) [Compound 129]	100 to 1000 nM	100 to 1000 nM	> 1000 nM	< 100 nM	100 to 1000 nM	–	–	–
C#Cc1cccc2cc(O)cc(-c3ncc4c(N5CC6CCC(C5)N6)nc(OCC5(CN6CCC(OC7CCN(Cc8ccc(-n9c(C(=O)NCC(F)(F)F)nnc9-c9cc(C(C)C)c(O)cc9O)cc8)CC7)CC6)CC5)nc4c3F)c12 [Compound 132]	< 100 nM	< 100 nM	< 100 nM	< 100 nM	< 100 nM	–	–	–
Cc1cccc2cccc(-c3ncc4c(N5CC6CCC(C5)N6)nc(OC[C@@H]5CC[C@H](CN6CCN(Cc7ccc(-n8c(C(=O)NC(C)C(F)(F)F)nnc8-c8cc(C(C)C)c(O)cc8O)cc7)CC6)N5C)nc4c3F)c12 (stereo partly drawn) [Compound 107]	100 to 1000 nM	100 to 1000 nM	100 to 1000 nM	100 to 1000 nM	100 to 1000 nM	–	–	–
C#Cc1c(F)ccc2cc(O)cc(-c3ncc4c(N5CC6CCC(C5)N6)nc(OCC5(CN6CCN(CC7CCN(Cc8ccc(-n9c(C(=O)NC(C)C(F)(F)F)nnc9-c9cc(C(C)C)c(O)cc9O)cc8)CC7)CC6)CC5)nc4c3F)c12 (stereo not drawn) [Compound 153]	< 100 nM	< 100 nM	< 100 nM	< 100 nM	< 100 nM	–	–	–
CC(C)c1cc(C(=O)N2Cc3ccc(CN4CCN([C@H]5C[C@@H](COc6nc(N7CC8CCC(C7)N8)c7cnc(-c8cccc9ccccc89)c(F)c7n6)N(C)C5)CC4)cc3C2)c(O)cc1O [Compound 35]	100 to 1000 nM	100 to 1000 nM	100 to 1000 nM	> 1000 nM	100 to 1000 nM	–	–	–
C#Cc1cccc2cc(O)cc(-c3ncc4c(N5CC6CCC(C5)N6C(C)=O)nc(OCC5(CN6CCN(CC7CCN(Cc8ccc9c(c8)CN(C(=O)c8cc(C(C)C)c(O)cc8O)C9)CC7)CC6)CC5)nc4c3F)c12 [Compound 151]	100 to 1000 nM	100 to 1000 nM	100 to 1000 nM	< 100 nM	100 to 1000 nM	–	–	–
C#Cc1c(F)ccc2cc(O)cc(-c3ncc4c(N5CC6CCC(C5)N6)nc(OCC5(CN6CCC(C7CCN(Cc8ccc9c(c8)CN(C(=O)c8cc(C(C)C)c(O)cc8O)C9)CC7)CC6)CC5)nc4c3F)c12 [Compound 163]	< 100 nM	< 100 nM	100 to 1000 nM	< 100 nM	100 to 1000 nM	–	–	–
C#Cc1c(F)ccc2cc(O)cc(-c3ncc4c(N5CC6CCC(C5)N6C(=O)C(F)(F)F)nc(OCC5(CN6CCN(CC7CCN(Cc8ccc(-n9c(C(=O)NCC)nnc9-c9cc(C(C)C)c(O)cc9O)cc8)CC7)CC6)CC5)nc4c3F)c12 [Compound 147]	< 100 nM	< 100 nM	100 to 1000 nM	< 100 nM	< 100 nM	–	–	–
C#Cc1c(F)ccc2cc(O)cc(-c3ncc4c(N5CC6CCC(C5)N6)nc(OCC5(CN6CCN(CC7CCN(Cc8ccc(-n9c(C(=O)NCC)nnc9-c9cc(C(C)C)c(O)cc9O)cc8)CC7)CC6)CC5)nc4c3F)c12 [Compound 148]	< 100 nM	< 100 nM	< 100 nM	< 100 nM	< 100 nM	–	–	–
C#Cc1cccc2cc(O)cc(-c3ncc4c(N5CC6CCC(C5)N6)nc(OCC5(CN6CCN(CC7CCN(c8ccc(-n9c(C(=O)NCC)nnc9-c9cc(C(C)C)c(O)cc9O)cc8)CC7)CC6)CC5)nc4c3F)c12 [Compound 124]	< 100 nM	< 100 nM	100 to 1000 nM	< 100 nM	< 100 nM	–	–	–
C#Cc1cccc2cccc(-c3ncc4c(N5CC6CCC(C5)N6)nc(OCC5(CN6CCN(Cc7ccc(-n8c(C(=O)NC(C)C(F)(F)F)nnc8-c8cc(C(C)C)c(O)cc8O)cc7)CC6)CC5)nc4c3F)c12 (stereo not drawn) [Compound 55]	100 to 1000 nM	100 to 1000 nM	100 to 1000 nM	100 to 1000 nM	100 to 1000 nM	–	–	–
C#Cc1cccc2cccc(-c3ncc4c(N5CC6CCC(C5)N6)nc(OCC5(CN6CCN(Cc7ccc(-n8c(C(=O)NCC(F)(F)F)nnc8-c8cc(C(C)C)c(O)cc8O)cc7)CC6)CC5)nc4c3F)c12 [Compound 54]	< 100 nM	< 100 nM	100 to 1000 nM	< 100 nM	100 to 1000 nM	–	–	–
COc1cccc2cccc(-c3ncc4c(N5CC6CCC(C5)N6)nc(OC[C@@H]5C[C@H](N6CCN(Cc7ccc8c(c7)CN(C(=O)c7cc(C(C)C)c(O)cc7O)C8)CC6)CN5C)nc4c3F)c12 [Compound 102]	100 to 1000 nM	100 to 1000 nM	100 to 1000 nM	100 to 1000 nM	100 to 1000 nM	–	–	–
C#Cc1cccc2cc(O)cc(-c3ncc4c(N5CC6CCC(C5)N6)nc(OCC5(CN6CCN(C(=O)C7CCN(Cc8ccc9c(c8)CN(C(=O)c8cc(C(C)C)c(O)cc8O)C9)CC7)CC6)CC5)nc4c3F)c12 [Compound 157]	100 to 1000 nM	< 100 nM	100 to 1000 nM	< 100 nM	100 to 1000 nM	–	–	–
C#Cc1cccc2cc(O)cc(-c3ncc4c(N5CC6CCC(C5)N6)nc(OCC5(CN6CCN(CC7CCN(Cc8ccc9c(c8)CN(C(=O)c8cc(C(C)C)c(O)cc8OC)C9)CC7)CC6)CC5)nc4c3F)c12 [Compound 152]	< 100 nM	< 100 nM	100 to 1000 nM	< 100 nM	100 to 1000 nM	–	–	–
C#Cc1cccc2cc(O)cc(-c3ncc4c(N5CC6CCC(C5)N6)nc(OCC5(CN6CCN(Cc7ccc(-n8c(C(=O)NC(C)C(F)(F)F)nnc8-c8cc(C(C)C)c(O)cc8O)cc7)CC6)CC5)nc4c3F)c12 (stereo not drawn) [Compound 155]	100 to 1000 nM	100 to 1000 nM	100 to 1000 nM	< 100 nM	100 to 1000 nM	–	–	–
C#Cc1c(F)ccc2cc(O)cc(-c3nc(OC)c4c(N5CC6CCC(C5)N6)nc(OCC5(CN6CCN(CC7CCN(Cc8ccc9c(c8)CN(C(=O)c8cc(C(C)C)c(O)cc8O)C9)CC7)CC6)CC5)nc4c3F)c12 [Compound 156]	< 100 nM	< 100 nM	< 100 nM	< 100 nM	100 to 1000 nM	–	–	–
Cc1cccc2cccc(-c3ncc4c(N5CC6CCC(C5)N6)nc(OC[C@@H]5C[C@H](N6CCN(Cc7ccc8c(c7)CN(C(=O)c7cc(C(C)C)c(O)cc7O)C8)CC6)CN5C)nc4c3F)c12 [Example 1]	100 to 1000 nM	–	–	100 to 1000 nM	–	100 to 1000 nM	100 to 1000 nM	100 to 1000 nM
CC(C)c1cc(C(=O)N2Cc3ccc(CN4CCC(CN5CCN(CC6(COc7nc(N8CC9CCC(C8)N9)c8cnc(-c9cccc%10ccccc9%10)c(F)c8n7)CC6)CC5)CC4)cc3C2)c(O)cc1O [Compound 128]	100 to 1000 nM	100 to 1000 nM	100 to 1000 nM	< 100 nM	100 to 1000 nM	–	–	–
